Our source for the T/C values is PubChem BioAssay AID328 (DTP/NCI, 2004).

In the test the test system is BDF1 mice, P388 leukemia ip, median survival T/C. Kind of test: NCI In Vivo Anticancer Drug Screen. Data for tumor model P388 Leukemia (intraperitoneal) in B6D2F1 (BDF1) mice. Conditions: endpoint: median survival time, higher = longer survival. The method in brief:
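Compound-treated tumour-bearing mice were compared with vehicle-treated controls. Survival was recorded, and the value is the treated-group measurement divided by the control-group measurement (T/C).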

Setting [1] is: dose: 25.0 mg/kg/injection, schedule: Q01DX009 (ip), vehicle: saline with Tween-80.
Setting [2] is: dose: 50.0 mg/kg/injection, schedule: Q01DX009 (ip), vehicle: saline with Tween-80.
[3] abbreviates: dose: 100.0 mg/kg/injection, schedule: Q01DX009 (ip), vehicle: saline with Tween-80.
Setting [4] is: dose: 200.0 mg/kg/injection, schedule: Q01DX009 (ip), vehicle: saline with Tween-80.
The mark [5] stands for this setting: dose: 100.0 mg/kg/injection, schedule: Q01DX009 (ip), vehicle: Klucel (hydroxypropylcellulose) (HPC).
The mark [6] stands for this setting: dose: 200.0 mg/kg/injection, schedule: Q01DX009 (ip), vehicle: Klucel (hydroxypropylcellulose) (HPC).
The mark [7] stands for this setting: dose: 50.0 mg/kg/injection, schedule: Q01DX009 (ip), vehicle: Klucel (hydroxypropylcellulose) (HPC).
Setting [8] is: dose: 100.0 mg/kg/injection, schedule: Q04DX003 (ip), vehicle: Klucel (hydroxypropylcellulose) (HPC).
Setting [9] is: dose: 200.0 mg/kg/injection, schedule: Q04DX003 (ip), vehicle: Klucel (hydroxypropylcellulose) (HPC).
Where [10] appears, read: dose: 400.0 mg/kg/injection, schedule: Q04DX003 (ip), vehicle: Klucel (hydroxypropylcellulose) (HPC).
The mark [11] stands for this setting: dose: 50.0 mg/kg/injection, schedule: Q01DX009 (ip), vehicle: saline.
[12] abbreviates: dose: 100.0 mg/kg/injection, schedule: Q01DX009 (ip), vehicle: saline.
Setting [13] is: dose: 100.0 mg/kg/injection, schedule: Q04DX003 (ip), vehicle: saline.
The mark [14] stands for this setting: dose: 200.0 mg/kg/injection, schedule: Q04DX003 (ip), vehicle: saline.
Where [15] appears, read: dose: 400.0 mg/kg/injection, schedule: Q04DX003 (ip), vehicle: saline.

“And” between values parts separate entries of the source, which are not always exact repeats. Identical values can stand only once. Inconclusive results and toxic doses are left out.

With `O=C(c1ccccc1)C1CN(C2CCCCC2)C1c1ccccc1` (stereo unspecified), the T/C is, setting by setting: under setting [1], 102 % of control; under setting [2], 90 % of control; under setting [3], 102 % of control; under setting [4], 100 % of control.

`C[C@]12CCC(=O)C=C1CC[C@@H]1[C@@H]2CC[C@@]2(C)[C@H]1CC[C@]2(C)O`: the T/C is 104 % of control (dose: 100.0 mg/kg/injection, schedule: Q01DX009 (sc), vehicle: steriod suspending solution); 105 % of control (dose: 100.0 mg/kg/injection, schedule: Q04DX003 (sc), vehicle: steriod suspending solution); 95 % of control (dose: 200.0 mg/kg/injection, schedule: Q01DX009 (sc), vehicle: steriod suspending solution); 90 % of control (dose: 200.0 mg/kg/injection, schedule: Q04DX003 (sc), vehicle: steriod suspending solution); 115 % of control (dose: 400.0 mg/kg/injection, schedule: Q04DX003 (sc), vehicle: steriod suspending solution).

In the case of `C[As](C)SC(CO)C1OC2OC(C)(C)OC2C1O` (stereo unspecified), the T/C was 97 % of control (dose: 12.5 mg/kg/injection, schedule: Q01DX009 (ip), vehicle: saline + alcohol); 100 % of control (dose: 25.0 mg/kg/injection, schedule: Q01DX009 (ip), vehicle: saline + alcohol); 106 % of control (dose: 50.0 mg/kg/injection, schedule: Q01DX009 (ip), vehicle: saline + alcohol).

Consider `O=c1c[n+](-c2ccccc2)[nH]o1`, for which the T/C was 115 % of control under setting [5] and 90 % of control under setting [6].

`Cc1cc(O)c2c(c1)OC1(C)CCC3C(C)(C)CCCC34COC2C14` (stereo unspecified): the T/C (dose: 50.0 mg/kg/injection, schedule: Q01DX009 (ip), vehicle: other) is 109 % of control; the T/C (dose: 100.0 mg/kg/injection, schedule: Q01DX009 (ip), vehicle: other) is 114 % of control; the T/C (dose: 200.0 mg/kg/injection, schedule: Q01DX009 (ip), vehicle: other) is 92 % of control and 110 % of control; the T/C (dose: 400.0 mg/kg/injection, schedule: Q01DX009 (ip), vehicle: other) was 101 % of control.

As to `O=C(c1ccccc1)c1cc[n+]([O-])cc1`, the T/C runs as follows: (dose: 75.0 mg/kg/injection, schedule: Q01DX001 (ip), vehicle: saline sonified) 91 % of control; (dose: 150.0 mg/kg/injection, schedule: Q01DX001 (ip), vehicle: saline sonified) 91 % of control.

With `CCOC(=O)c1cnc(=S)[nH]c1N`, the T/C was 95 % of control under setting [7]; 109 % of control (dose: 50.0 mg/kg/injection, schedule: Q04DX003 (ip), vehicle: Klucel (hydroxypropylcellulose) (HPC)); 100 % of control under setting [5]; 100 % of control under setting [8]; 95 % of control under setting [6]; 109 % of control under setting [9].

As to `CCCCCCCCC(O)CCCC` (stereo unspecified), the T/C reads like this: under setting [8], 91 % of control; under setting [9], 91 % of control; under setting [10], 100 % of control.

Consider `Cc1cc(=O)oc2cc3oc(N(C)c4ccccc4)nc(=O)c3cc12`, for which the T/C is, setting by setting: (dose: 100.0 mg/kg/injection, schedule: Q04DX002 (ip), vehicle: saline with Tween-80) 100 % of control; (dose: 200.0 mg/kg/injection, schedule: Q04DX002 (ip), vehicle: saline with Tween-80) 92 % of control; (dose: 400.0 mg/kg/injection, schedule: Q04DX002 (ip), vehicle: saline with Tween-80) 102 % of control.

On to `Cc1ccc2c(c1)CCCN2C=O`, for which the T/C reads like this: under setting [2], 104 % of control; under setting [3], 109 % of control; under setting [4], 123 % of control.

As to `C=C(C)COP(=O)(OCC(=C)C)OCC(=C)C`, the T/C by setting is: under setting [7], 104 % of control; under setting [5], 100 % of control; under setting [8], 104 % of control; under setting [6], 109 % of control; under setting [9], 95 % of control; under setting [10], 95 % of control.

For `CCOS(C)(=O)=O`, the T/C under setting [11] was 90 % of control, the T/C under setting [12] is 100 % of control, the T/C under setting [13] is 100 % of control and the T/C under setting [14] was 105 % of control.

Turning to `O=Cc1c[nH]c2nccnc12`, the T/C reads like this: (dose: 25.0 mg/kg/injection, schedule: Q01DX009 (ip), vehicle: saline) 98 % of control; under setting [11], 101 % of control; under setting [12], 99 % of control and 115 % of control; under setting [13], 100 % of control; (dose: 200.0 mg/kg/injection, schedule: Q01DX009 (ip), vehicle: saline) 107 % of control and 108 % of control; under setting [14], 101 % of control. The T/C under setting [15] was 103 % of control.

As to `CCOC(=O)CCCC1(C)C(C#N)C(=O)NC(=O)C1C#N` (stereo unspecified), the T/C by setting is: under setting [13], 104 % of control; under setting [14], 100 % of control; under setting [15], 118 % of control.

In the case of `C[N+](C)(Cc1ccccc1)/N=C(\[O-])Cc1ccccc1`, the T/C reads like this: (dose: 50.0 mg/kg/injection, schedule: Q01DX001 (ip), vehicle: saline) 109 % of control; (dose: 100.0 mg/kg/injection, schedule: Q01DX001 (ip), vehicle: saline) 104 % of control.

In the case of `COC(=O)CCCCCCCC(=O)OCC#CC#CCOC(=O)CCCCCCCC(=O)OC`, the T/C is, setting by setting: under setting [8], 109 % of control; under setting [9], 104 % of control; under setting [10], 104 % of control.

As to `C=CCCCCCCCCC(=O)NCC1CC1`, the T/C is 100 % of control under setting [3]; 90 % of control under setting [4]; 86 % of control (dose: 400.0 mg/kg/injection, schedule: Q01DX009 (ip), vehicle: saline with Tween-80).

Turning to `O=S(=O)(CBr)N1CCOCC1`, the T/C runs as follows: (dose: 50.0 mg/kg/injection, schedule: Q01DX001 (ip), vehicle: saline with Tween-80) 95 % of control; (dose: 100.0 mg/kg/injection, schedule: Q01DX001 (ip), vehicle: saline with Tween-80) 100 % of control; (dose: 200.0 mg/kg/injection, schedule: Q01DX001 (ip), vehicle: saline with Tween-80) 108 % of control.

Turning to `COc1ccc(C(O)CNC(=O)c2ccccc2)cc1` (stereo unspecified), the T/C reads like this: (dose: 66.0 mg/kg/injection, schedule: Q04DX003 (ip), vehicle: Klucel (hydroxypropylcellulose) (HPC)) 109 % of control and 110 % of control; under setting [8], 255 % of control and 104 % of control and 115 % of control; (dose: 150.0 mg/kg/injection, schedule: Q04DX003 (ip), vehicle: Klucel (hydroxypropylcellulose) (HPC)) 109 % of control and 115 % of control.

With `CC(C)(O)c1cccc(F)c1`, the T/C reads like this: under setting [2], 100 % of control; under setting [3], 104 % of control; under setting [4], 109 % of control.

Consider `Clc1ccccc1-c1ncc2cnccn12`, for which the T/C (dose: 0.19 mg/kg/injection, schedule: Q01DX009 (ip), vehicle: saline with Tween-80) is 102 % of control; the T/C (dose: 0.39 mg/kg/injection, schedule: Q01DX009 (ip), vehicle: saline with Tween-80) was 102 % of control; the T/C (dose: 0.78 mg/kg/injection, schedule: Q01DX009 (ip), vehicle: saline with Tween-80) was 106 % of control; the T/C (dose: 1.56 mg/kg/injection, schedule: Q01DX009 (ip), vehicle: saline with Tween-80) was 102 % of control; the T/C (dose: 6.25 mg/kg/injection, schedule: Q01DX009 (ip), vehicle: saline with Tween-80) was 99 % of control and 103 % of control; the T/C (dose: 12.5 mg/kg/injection, schedule: Q01DX009 (ip), vehicle: saline with Tween-80) was 86 % of control. Also, the T/C is 88 % of control under setting [1]; 115 % of control (dose: 25.0 mg/kg/injection, schedule: Q04DX003 (ip), vehicle: saline with Tween-80); 86 % of control under setting [2]; 107 % of control (dose: 50.0 mg/kg/injection, schedule: Q04DX003 (ip), vehicle: saline with Tween-80); 88 % of control (dose: 100.0 mg/kg/injection, schedule: Q04DX003 (ip), vehicle: saline with Tween-80).

For the compound `Oc1ccccc1C=NC1CCCCC1.Oc1ccccc1C=NC1CCCCC1.[Cu+2]`, the T/C was 90 % of control (dose: 100.0 mg/kg/injection, schedule: Q01DX001 (ip), vehicle: saline sonified); 90 % of control (dose: 200.0 mg/kg/injection, schedule: Q01DX001 (ip), vehicle: saline sonified); 109 % of control (dose: 400.0 mg/kg/injection, schedule: Q01DX001 (ip), vehicle: saline sonified).
